The subject of test [1] is 21 day old female SD rats. The experiment in a line: in-vivo anti-uterotrophic activity in immature rats (uterine weight/body weight). Further details: species or system rat. The note with it: 10 μmol/kg by gavage for 3 days, compared with tamoxifen. As for the experimental part:
In order to evaluate the compounds set forth above for in-vivo anti-uterotrophic activity, groups of five 21 day old female SD rats (30-35 g) were weighed and the average weights recorded for each treatment group as illustrated in FIG. 1. Stock solutions (10×) of the triphenylethylene analogs in ethanol were diluted with 0.5% methyl cellulose and 10 μmol/kg was dosed by gavage to the animals. Estradiol was dissolved in sesame oil and 100 nmol/kg dosed by subcutaneous injection. Animals were dosed for 3 days and sacrificed on day 4 by CO2 asphyxiation. The body weights were obtained, uteri removed, blotted and weighed. Data is expressed as uterine weight/body weight±standard error. Solid bars represent data from animals dosed with test compound alone. Open bars represent data from animals dosed with test compounds 6h prior to a dose of estradiol.

Test [2] deals with Ishikawa human endometrioma cell line. Description: Ishikawa cell functional assay of estrogenic activity (alkaline phosphatase induction). It is filed as cell-based. On the procedure: Subconfluent Ishikawa-Var I cells were removed from maintenance growth conditions and resuspended in phenol red-free DMEM-F12 containing 5% charcoal stripped FBS and 2 mM glutamine at a concentration of 58,500 cells/mL. Cells were plated at a density of 13,000 cells/cm^2 and placed in an incubator (37° C., 5% CO2) for 3 days. Cells were harvested and resuspended in phenol red-free DMEM-F12 containing 1% charcoal stripped FBS, 2 mM glutamine, 100 Units/mL penicillin and 100 μg/mL streptomycin to a concentration of 83,000 cells/mL. Cells were seeded at a density of 8300 cells/well in 96 well plates and allowed to attach overnight. Appropriate drug treatments at 2× concentrations were added in 0.1 mL of medium containing 0.2% DMSO. Plates were incubated for 2 days, media was aspirated and plates washed once with 300 μL 0.9% sterile saline. Plates were frozen at −70° C. and then warmed to RT. The attached cells were assayed for alkaline phosphatase activity by addition of 200 μL of 5 mM p-nitrophenylphosphate in 1 M diethanolamine, pH 10.4, containing 0.1% (w/v) Triton X-100, incubation at 37° C. for 30 min and measurement of absorbance at 405 nm on a Molecular Devices ThermoMax plate reader.

Test [3] has as its system 90 day old estrogen deficient ovariectomized rats. The experiment in a line: bone mineral density in ovariectomized rats (lumbar spine and tibia). It counts as in vivo, rat. The note with it: 10 μmol/kg orally once a day for 28 days, versus sham-operated. On the procedure:
As an example of the functional profile of these compounds in bone, Compound No. 9 was evaluated in 90 day old estrogen deficient ovariectomized rats for their ability to inhibit loss of bone mineral density. Ninety day old SD rats were divided into groups of six. […] were surgically ovariectomized. Two days post-ovariectomy, animals were dosed by gavage with either 10 μmol/kg of Compound No. 9 in 0.5% methyl cellulose or vehicle once a day for 28 days. One group of aminals was sham-operated, and 2 days post-ovariectomy dosed with vehicle once a day for 28 days. At 0, 14 and 28 days, rats were anesthesized with isoflurane and placed in the supine position with their spines parallel to the long axis of the densitometer table. The lumbar spine was scanned using the pelvic bones as a landmark. […] The right tibia was analysed with subregional high resolution software, focusing on the 3-5 mm distal from the growth plate previously identified as a region of accelerated bone loss due to ovariectomy.
BMD was measured by dual-energy X-ray absorptiometry using a Hologic QDR-2000 bone densitometer using a regional high-resolution software package with default scan length, width, line spacing and point resolution of 2, 0.75, 0.01 and 0.005 in. respectively.

Experimental findings from US20010053774A1, “Non-steroidal ligands for the estrogen receptor” (GLAXO WELLCOME INC.., priority 1994, published 2001) are described below.

Molecules are shown by their SMILES.

The term Emax denotes the maximal effect, on the per cent scale that the assay sets.

On to `CCC(=C(c1ccccc1)c1ccc(C=CC(=O)O)cc1)c1ccccc1` [Compound No. 9, 3-[4-(1,2-Diphenyl-but-1-enyl)-phenyl]-acrylic acid], for which the “residual agonist activity, uterine weight/body weight (FIG. 1)” value in test [1] is given as “less residual agonist activity than tamoxifen”. For the same compound, the EC50 in test [2] (Homo sapiens, 48 h, Ishikawa-Var I cells, 2 days incubation, estrogen agonist activity, read-out: EC50 (concentration inducing 50% of maximal alkaline phosphatase activity)) came to 58 nM. The maximal response (Emax) in test [2] (Homo sapiens, Ishikawa, percentage of the alkaline phosphatase activity induced by a saturating concentration of estradiol, read-out: Emax (maximal alkaline phosphatase activity)) was 3.8 ± 0.9%. Besides, the “agonist activity (Emax) in the Ishikawa cell functional assay (in words)” value in test [2] (comparison with tamoxifen or within the series) was “lowest residual agonist activity”. Further, the “bone mineral density (BMD), lumbar spine and tibia (FIG. 2)” value in test [3] is reported as “full agonist activity”.
